Data as given in PMC9866191, “Novel 9-Benzylaminoacridine Derivatives as Dual Inhibitors of Phosphodiesterase 5 and Topoisomerase II for the Treatment of Colon Cancer” (Molecules, 2023).

Tests used:
TK-10 = test: NCI-60 one-dose screen; format: cell-based; conditions: Homo sapiens; TK-10, Renal Cancer panel; single dose 10^−5 M; read-out: Growth inhibition %
RXF 393 = test: NCI-60 one-dose screen; format: cell-based; conditions: Homo sapiens; RXF 393, Renal Cancer panel; single dose 10^−5 M; read-out: Growth inhibition %
UACC-62 = test: NCI-60 one-dose screen; format: cell-based; conditions: Homo sapiens; UACC-62, Melanoma panel; single dose 10^−5 M; read-out: Growth inhibition %
HT29 = test: NCI-60 one-dose screen; format: cell-based; conditions: Homo sapiens, HT-29; HT29, Colon Cancer panel; single dose 10^−5 M; read-out: Growth inhibition %
HS 578T = test: NCI-60 one-dose screen; format: cell-based; conditions: Homo sapiens, Breast Cancer panel, single dose 10^−5 M, read-out: Growth inhibition %
HOP-62 = test: NCI-60 one-dose screen; format: cell-based; conditions: Homo sapiens; HOP-62, Non-small cell lung panel; single dose 10^−5 M; read-out: Growth inhibition %
HL-60(TB) = test: NCI-60 one-dose screen; format: cell-based; conditions: Homo sapiens, Leukemia panel, single dose 10^−5 M, read-out: Growth inhibition %
SNB-19 = test: NCI-60 one-dose screen; format: cell-based; conditions: Homo sapiens; SNB-19, CNS Cancer panel; single dose 10^−5 M; read-out: Growth inhibition %
A549/ATCC = test: NCI-60 one-dose screen; format: cell-based; conditions: Homo sapiens, Non-small cell lung panel, single dose 10^−5 M, read-out: Growth inhibition %
NCI-H23 = test: NCI-60 one-dose screen; format: cell-based; conditions: Homo sapiens; NCI-H23, Non-small cell lung panel; single dose 10^−5 M; read-out: Growth inhibition %
786-0 = test: NCI-60 one-dose screen; format: cell-based; conditions: Homo sapiens; 786-0, Renal Cancer panel; single dose 10^−5 M; read-out: Growth inhibition %
NCI-H460 = test: NCI-60 one-dose screen; format: cell-based; conditions: Homo sapiens; NCI-H460, Non-small cell lung panel; single dose 10^−5 M; read-out: Growth inhibition %
HCT-116 [1] = test: NCI-60 one-dose screen; format: cell-based; conditions: Homo sapiens, read-out: Growth inhibition %
A498 = test: NCI-60 one-dose screen; format: cell-based; conditions: Homo sapiens; A498, Renal Cancer panel; single dose 10^−5 M; read-out: Growth inhibition %
MDA-MB-231/ATCC = test: NCI-60 one-dose screen; format: cell-based; conditions: Homo sapiens, Breast Cancer panel, single dose 10^−5 M, read-out: Growth inhibition %
PC-3 = test: NCI-60 one-dose screen; format: cell-based; conditions: Homo sapiens; PC-3, Prostate Cancer panel; single dose 10^−5 M; read-out: Growth inhibition %
MDA-MB-468 = test: NCI-60 one-dose screen; format: cell-based; conditions: Homo sapiens; MDA-MB-468, Breast Cancer panel; single dose 10^−5 M; read-out: Growth inhibition %
BT-549 = test: NCI-60 one-dose screen; format: cell-based; conditions: Homo sapiens; BT-549, Breast Cancer panel; single dose 10^−5 M; read-out: Growth inhibition %
MALME-3M = test: NCI-60 one-dose screen; format: cell-based; conditions: Homo sapiens, Melanoma panel, single dose 10^−5 M, read-out: Growth inhibition %
OVCAR-4 = test: NCI-60 one-dose screen; format: cell-based; conditions: Homo sapiens; OVCAR-4, Ovarian Cancer panel; single dose 10^−5 M; read-out: Growth inhibition %
RPMI-8226 = test: NCI-60 one-dose screen; format: cell-based; conditions: Homo sapiens; RPMI-8226, Leukemia panel; single dose 10^−5 M; read-out: Growth inhibition %
OVCAR-8 = test: NCI-60 one-dose screen; format: cell-based; conditions: Homo sapiens; OVCAR-8, Ovarian Cancer panel; single dose 10^−5 M; read-out: Growth inhibition %
EKVX = test: NCI-60 one-dose screen; format: cell-based; conditions: Homo sapiens, Non-small cell lung panel, single dose 10^−5 M, read-out: Growth inhibition %
OVCAR-5 = test: NCI-60 one-dose screen; format: cell-based; conditions: Homo sapiens; OVCAR-5, Ovarian Cancer panel; single dose 10^−5 M; read-out: Growth inhibition %
NCI-H322M = test: NCI-60 one-dose screen; format: cell-based; conditions: Homo sapiens, Non-small cell lung panel, single dose 10^−5 M, read-out: Growth inhibition %
SF-539 = test: NCI-60 one-dose screen; format: cell-based; conditions: Homo sapiens; SF-539, CNS Cancer panel; single dose 10^−5 M; read-out: Growth inhibition %
NCI-H226 = test: NCI-60 one-dose screen; format: cell-based; conditions: Homo sapiens; NCI-H226, Non-small cell lung panel; single dose 10^−5 M; read-out: Growth inhibition %
MOLT-4 = test: NCI-60 one-dose screen; format: cell-based; conditions: Homo sapiens; MOLT-4, Leukemia panel; single dose 10^−5 M; read-out: Growth inhibition %
DU-145 = test: NCI-60 one-dose screen; format: cell-based; conditions: Homo sapiens; DU-145, Prostate Cancer panel; single dose 10^−5 M; read-out: Growth inhibition %
MCF7 = test: NCI-60 one-dose screen; format: cell-based; conditions: Homo sapiens; MCF7, Breast Cancer panel; single dose 10^−5 M; read-out: Growth inhibition %
UO-31 = test: NCI-60 one-dose screen; format: cell-based; conditions: Homo sapiens; UO-31, Renal Cancer panel; single dose 10^−5 M; read-out: Growth inhibition %
CCD-966SK = test: MTT cell proliferation assay, CCD-966SK; conditions: CCD966SK skin fibroblast, 72 h MTT
Protocol: (§1) In the MTT assay, 96-well culture plates were used. A total of 7 × 10^4 cells per well were seeded, and test materials were added to the cells at various concentrations [47, 48]. Human cancer and non-cancer cell lines were purchased commercially from the American Type Culture Collection (ATCC). After 72 h, the cytotoxicity of the compounds and paclitaxel (as a positive control group) was detected using the MTT method (thiazolyl blue tetrazolium bromide, Sigma-M2128). Absorbance values at 570 and 620 nm (OD = OD570–OD620) were measured using an ELISA reader (Anthos Labtec Instruments, Salzburg, Austria).

HCT-116 [2] = test: MTT cell proliferation assay, HCT-116; conditions: for % Inhibition at 10 µM: 72 h MTT, means ± SD; for IC50: read-out: IC50 μM, 72 h MTT, means ± SD, three experiments
Protocol: as §1

| SMILES | inhibition at 10 µM (TK-10) [%] | inhibition at 10 µM (RXF 393) [%] | inhibition at 10 µM (UACC-62) [%] | inhibition at 10 µM (HT29) [%] | inhibition at 10 µM (HS 578T) [%] | inhibition at 10 µM (HOP-62) [%] | inhibition at 10 µM (SNB-19) [%] | inhibition at 10 µM (A549/ATCC) [%] | inhibition at 10 µM (NCI-H23) [%] | inhibition at 10 µM (786-0) [%] | inhibition at 10 µM (NCI-H460) [%] | inhibition at 10 µM (HCT-116 [1]) [%] | inhibition at 10 µM (A498) [%] | inhibition at 10 µM (MDA-MB-231/ATCC) [%] | inhibition at 10 µM (PC-3) [%] | inhibition at 10 µM (MDA-MB-468) [%] | inhibition at 10 µM (BT-549) [%] | inhibition at 10 µM (MALME-3M) [%] | inhibition at 10 µM (OVCAR-4) [%] | inhibition at 10 µM (RPMI-8226) [%] | other results |
| --- | --- | --- | --- | --- | --- | --- | --- | --- | --- | --- | --- | --- | --- | --- | --- | --- | --- | --- | --- | --- | --- |
| COc1cccc(CNc2c3ccccc3nc3ccccc23)c1 [Compound 6, Acridin-9-yl-(3-methoxybenzyl)-amine] | 48.3 | 86.2 | 36.5 | 81.3 | 44.4 | 53.5 | 64 | 69.8 | 62.7 | 62.7 | 90 | 90.1 | 96.3 | 50.1 | 61.1 | 86.4 | 31.3 | 56 | 56.4 | 83.3 | inhibition at 10 µM (HL-60(TB)): 59.1%; inhibition at 10 µM (OVCAR-8): 68.1%; inhibition at 10 µM (EKVX): 48.2%; inhibition at 10 µM (OVCAR-5): 54.1%; inhibition at 10 µM (NCI-H322M): 56%; inhibition at 10 µM (SF-539): 80.6%; inhibition at 10 µM (NCI-H226): 51.9%; inhibition at 10 µM (MOLT-4): 93.6%; inhibition at 10 µM (DU-145): 46.7%; inhibition at 10 µM (MCF7): 85.4%; inhibition at 10 µM (UO-31): 73%; % Inhibition at 10 µM (CCD-966SK): 54.31 ± 0.98% |
| COc1cccc(CNc2c3ccccc3nc3ccccc23)c1OC [Compound 16, Acridin-9-yl-(2,3-dimethoxybenzyl)-amine] | 40.5 | 70.1 | 48.7 | 85.6 | 35.7 | 48.8 | 64.5 | 69.7 | 67.6 | 61.2 | 88.4 | 88.2 | 104 | 58.1 | 62.4 | 98.9 | 40.3 | 49.4 | 63.4 | 83 | inhibition at 10 µM (OVCAR-8): 60.8%; inhibition at 10 µM (EKVX): 63.7%; inhibition at 10 µM (OVCAR-5): 57%; inhibition at 10 µM (NCI-H322M): 58.4%; inhibition at 10 µM (SF-539): 81.1%; inhibition at 10 µM (NCI-H226): 48.4%; inhibition at 10 µM (MOLT-4): 82.2%; inhibition at 10 µM (DU-145): 58.2%; inhibition at 10 µM (MCF7): 89.9%; inhibition at 10 µM (UO-31): 74.8%; % Inhibition at 10 µM (CCD-966SK): 29.78 ± 2.20% |
| Fc1ccc(CNc2c3ccccc3nc3ccccc23)cc1F [Compound 22, Acridin-9-yl-(3,4-difluorobenzyl)-amine] | 48.9 | 92.6 | 40 | 86.6 | 35.2 | 48.7 | 67.1 | 70.9 | 64.8 | 68.5 | 85.4 | 91.8 | 90.2 | 65.2 | 64.3 | 111 | 31.8 | 49.3 | 64.6 | 73.1 | inhibition at 10 µM (HL-60(TB)): 65.5%; inhibition at 10 µM (OVCAR-8): 67.9%; inhibition at 10 µM (EKVX): 64.5%; inhibition at 10 µM (OVCAR-5): 55.4%; inhibition at 10 µM (NCI-H322M): 61%; inhibition at 10 µM (SF-539): 77.9%; inhibition at 10 µM (NCI-H226): 52.4%; inhibition at 10 µM (DU-145): 60.5%; inhibition at 10 µM (MCF7): 87.1%; inhibition at 10 µM (UO-31): 84.5%; % Inhibition at 10 µM (HCT-116 [2]): 56.92 ± 0.61%; IC50 (HCT-116 [2]): 6.99 ± 0.17 µM; % Inhibition at 10 µM (CCD-966SK): 37.49 ± 7.38% |
| Cc1ccc2nc3ccccc3c(NCc3ccccc3)c2c1 [Compound 30, Benzyl-(2-methylacridin-9-yl)-amine] | 24.7 | 98.7 | 43.6 | 88.4 | 30.2 | 56.5 | 68.2 | 59.8 | 64.2 | 65.7 | 82.9 | 90.6 | 88.6 | 64.2 | 70.3 | 111 | 31 | 44.8 | 67.2 | 93.2 | inhibition at 10 µM (HL-60(TB)): 59.4%; inhibition at 10 µM (OVCAR-8): 66.5%; inhibition at 10 µM (EKVX): 50.4%; inhibition at 10 µM (OVCAR-5): 59.6%; inhibition at 10 µM (NCI-H322M): 59.1%; inhibition at 10 µM (SF-539): 76.8%; inhibition at 10 µM (NCI-H226): 50.2%; inhibition at 10 µM (DU-145): 64.2%; inhibition at 10 µM (MCF7): 88.8%; inhibition at 10 µM (UO-31): 81.7%; % Inhibition at 10 µM (HCT-116 [2]): 68.46 ± 1.55%; IC50 (HCT-116 [2]): 5.78 ± 0.11 µM; % Inhibition at 10 µM (CCD-966SK): 47.93 ± 1.06% |
| Cc1ccc2nc3ccccc3c(NCc3ccc(Cl)cc3)c2c1 [Compound 31, (4-Chlorobenzyl)-(2-methyl-acridin-9-yl)-amine] | 17.6 | 71 | 26 | 94.7 | 22.2 | 34.8 | 49.7 | 59.2 | 54 | 65.3 | 70.5 | 85.3 | 87 | 62.3 | 60.9 | 122 | 24.4 | 114 | 62.5 | 128 | inhibition at 10 µM (OVCAR-8): 47.6%; inhibition at 10 µM (EKVX): 44.6%; inhibition at 10 µM (OVCAR-5): 49.3%; inhibition at 10 µM (NCI-H322M): 44.1%; inhibition at 10 µM (SF-539): 59.8%; inhibition at 10 µM (NCI-H226): 27.7%; inhibition at 10 µM (MOLT-4): 99.9%; inhibition at 10 µM (DU-145): 48.6%; inhibition at 10 µM (MCF7): 121%; inhibition at 10 µM (UO-31): 75.5%; % Inhibition at 10 µM (HCT-116 [2]): 55.53 ± 1.69%; IC50 (HCT-116 [2]): 7.95 ± 0.65 µM; % Inhibition at 10 µM (CCD-966SK): 60.02 ± 3.07%; IC50 (CCD-966SK; read-out: IC50 μM): 4.96 ± 0.62 µM |
